Assay: Thermogravimetric analysis (TGA), thermal stability
Type: physicochemical
Details: Trios V3.0, 10° C./min, N2 atmosphere; FIG. 7
Protocol: Thermogravimetric analysis (TGA) and differential scanning calorimetry (DSC) analysis of the polymerizable liquid crystal compound according to Synthesis Example 1 are performed by using Trios V3.0 (TA Instrument, 10° C./min, N2 atmosphere). FIG. 7 is a drawing showing the thermogravimetric analysis of the polymerizable liquid crystal compound 1a-5 according to Synthesis Example 1, and FIG. 8 is a drawing showing the differential scanning calorimetry (DSC) analysis of the polymerizable liquid crystal compound 1a-5 according to Synthesis Example 1.
Referring to FIG. 7, the polymerizable liquid crystal compound 1a-5 of Synthesis Example 1 is decomposed at a temperature of greater than or equal to 300° C.

## C=CC(=O)OCCCOc1ccc(C(=O)OCc2ccc(C(=O)Oc3ccc(OC(=O)c4ccc(COC(=O)c5ccc(OCCCOC(=O)C=C)cc5)cc4)cc3)cc2)cc1 [Compound 1a-5]
  Decomposition temperature (TGA): greater than or equal to 300 °C

— patent publication US9567524B2, “Polymerizable liquid crystal compound, and compensation film, antireflective film, and display device including the same” (SAMSUNG ELECTRONICS CO., LTD., priority 2015, dated 2017)
